Experimental data published in PMC3989207, “Subchronic Toxicological Study of Two Artemisinin Derivatives in Dogs” (PLoS ONE, 2014).

How the values were obtained:
[1] = test system: beagle dogs; assay: Electrocardiography in the 13-week repeated-dose dog study; assay type: in vivo; settings: for Heart rate: 6 mg kg^-1 per day (ART p.o., ARM i.m.), vs control group
Experimental: (§1) The first day of treatment was regarded as day one in the study. […] Oral administration was performed about 2 h after feeding. ARM was administered by a bolus intramuscular infusion through a 25-gauge needle at a constant volume of 2 ml kg^−1 once a day into the gluteal and infraspinous muscles. Two dogs of each sex from each group were allowed to recover without further treatment for an additional 4 weeks.
Electrocardiograms were recorded using an Auto Electrocardiogram (ECG-9130P, Nihon Kohden Corporation, Japan). Recordings were taken from each dog, while conscious, every 2 weeks from week-1. Leads I, II, III, aVR, aVL and aVF were utilized. The electrocardiography (ECG) parameters included heart rate, PR, QRS and QT interval, and QRS and T wave amplitudes. As the PQ and QT intervals vary with heart rate, they were adjusted to an RR-interval of 500 ms, corresponding to a heart rate of 120 bpm using the following equation: QT500 = QT – 0.084×(RR – 500).

[2] = test system: beagle dogs; assay: Hematology in the 13-week repeated-dose dog study; assay type: in vivo
Experimental: as §1
Blood samples were collected from the femoral vein of each dog prior to treatment and every 2 weeks after the first day of treatment. Hematology parameters were measured using an automated hematology analyzer (Sysmex, XT-2000iv, Toa Medical Electronics Co. Ltd., Kobe, Japan) using standard methods. Test parameters included hemoglobin (Hb) levels, the hematocrit (Hct) fraction, erythrocyte (RBC) count, leukocyte (WBC) count, neutrophilic granulocyte fraction (NE%), monocyte fraction (MO%), lymphocyte levels (LY%), platelet count (PLT), reticulocyte count (RET%) and RBC morphology. The following clinical chemistry parameters were measured using a Hitachi-7180 Chemistry Analyzer (High-Technologies Corporation, Tokyo, Japan) and standard methods: glucose, blood urea nitrogen, inorganic phosphorus, creatinine, total protein, albumin, calcium, aspartate aminotransferase (AST), alanine aminotransferase, alkaline phosphatase, total bilirubin, creatine kinase (CK), sodium, potassium and chloride.
The differential granulocytic and erythrocytic series (erythroid, myeloid blast cell count and the red ratio) were determined manually from blood smears.

[3] = test system: beagle dogs; assay: Severity grading of muscle tissue injury at the intramuscular injection site; assay type: in vivo, dog; settings: for Severity of muscle tissue injury at the injection site: n=4
Experimental: as §1
Termination of treatment was scheduled to occur on weeks 4, 8 (two interim necropsies) and 13, followed by a 4-week recovery period. For pathological examinations, the animals were euthanized within 24 h of the final drug administration with sodium pentobarbital, followed by exsanguination via the femoral artery. A gross necropsy was performed, including a thorough visual examination of all the internal organs. Weights were obtained for the brain, heart, liver, spleen, lung, kidneys, adrenals, thyroid/parathyroids, thymus, pancreas and ovaries/testes/prostate, and organ-to-body weight ratios were calculated. For each animal, representative samples from approximately 48 organs and tissues were taken and fixed in neutral buffered 10% formalin, except for the sternum, which was retained in Helly’s fixative (1000 ml distilled water, 25 g potassium dichromate, 10 g sodium sulfate, 50 g mercuric chloride, 50 ml 40% formaldehyde). Histopathological sections of all samples were prepared by embedding in paraffin wax, multiple-sectioning and staining with hematoxylin and eosin (HE). Samples of the left ventricular myocardium, right lateral hepatic lobe and right kidney from two animals of each sex from each group were fixed immediately after exsanguination in 2.5% glutaraldehyde, post-fixed in 1.0% osmium tetroxide, and embedded in plastic. Ultrathin liver, kidney and heart sections were examined with a Hitachi H-600 transmission electron microscope (TEM). All other tissues were examined by light microscopy.
Gross findings in the ART and ARM treatment groups were limited to the injection sites.

[4] = test system: beagle dogs; assay: Clinical observations; assay type: in vivo
Experimental: as §1
All dogs were assessed once daily for mortality and toxicological or other clinical signs, including behavioral changes (such as tremor, gait impairment, balance disturbance and auditory impairment), appetite, excreta (urinalysis for specific gravity, ketone bodies and pH), balance and coordination. Standard and acceptable veterinary health care practices were used during this evaluation to ensure good health of the animals.

[5] = test system: Mouse; design: method as in Nontprasert et al., 2000 [42]; settings: 300 mg kg^−1 per day, p.o. for 28 days, ref Nontprasert et al., 2000 [42]; cited from earlier work
[6] = test system: Rats; design: method as in Xiao et al. (2002) [31]; settings: cited from earlier work
[7] = design: method as in Li et al. (2006); settings: applied to ARM plasma levels; ref Li et al. (2006); cited from earlier work
[8] = week 2 until week 10 post-treatment, vs control groups (p<0.05)
[9] = oral 80 and 400 mg kg^−1 once every 2 weeks for 5 months, ref Xiao et al. (2002) [31]
[10] = oral high dose of 400 mg kg^−1, ref Xiao et al. (2002) [31]

For `CO[C@H]1O[C@@H]2O[C@@]3(C)CC[C@H]4[C@H](C)CC[C@@H]([C@H]1C)[C@@]24OO3` [ARM, artemether], the Heart rate ([1]; Week 4) was “- (“-” = No effect)”, the Heart rate ([1]; Week 8) was “- (“-” = No effect)” and the Heart rate ([1]; Week 13) was “- (“-” = No effect)”. For the same compound, the “mean QT intervals (adjusted for heart rate, QT500)” value ([1]; week 3 until the final drug treatment, male and female dogs, vs vehicle control) was “prolonged”, the “Hematology (overall)” value ([2]; Week 13, 6 mg kg^-1 per day) was “- (“-” = No effect)” and the MO% ([2]; females, after weeks 6, 8 and 10 (p<0.05)) was “significant increases”. For the same compound, the Hb levels ([2]; week 2) was “corresponding decrease”, the RBC counts ([2]; week 2) was “decrease” and the LY% [2, 8] was “decreased”. For the same compound, the NE% [2, 8] was “significantly increased”, the WBC count [2, 8] was “significantly increased” and the RET% ([2]; week 10, males and females, vs peanut oil control group (p<0.05)) was “significant increase”. For the same compound, the “Severity of muscle tissue injury at the injection site” value (from here on “Severity of muscle tissue injury”) ([3]; W4, 6 mg kg^−1 i.m., grades 0 (no significant lesions) to 5 (severe)) was 2.25±0.87, the “Severity of muscle tissue injury” value ([3]; W8, 6 mg kg^−1 i.m., grades 0 to 5) was 2.67±0.78 and the “Severity of muscle tissue injury” value ([3]; W13, 6 mg kg^−1 i.m., grades 0 to 5) was 3.92±1.08. For the same compound, the “Severity of muscle tissue injury” value ([3]; W17 (after 4-week recovery), grades 0 to 5) was 3.84±0.72, the “inflammation of muscle tissue at the injection site” value ([3]; i.m. injection, vs vehicle control group) was “more severely inflamed than that in the vehicle control group” and the behavioral changes ([4]; 6 mg kg^-1 per day i.m. for 13 weeks) was “not observed”. For the same compound, the main clinical signs ([4]; 6 mg kg^-1 per day i.m., after treatment for 4 weeks up to the end of the recovery period) was “skin thickening at the injection site and myonecrosis-like features”, the “Effect (toxicology)” value [5] was “Balance/gait disturbances and mortality” and the Hb levels [6, 9] was “reversible increase”. The QT interval [6, 9] was “No changes”, the reticulocyte count [6, 9] was “reversible reduction” and the liver finding [6, 10] was “transient focal vesicle degeneration of the liver”. For the same compound, the neuropathological alterations [6, 10] was “no evidence of neuropathological alterations” and the “lowest observed neurotoxic effect level (plasma concentration)” value [7] was 40.92 ng/mL.
